Data taken from ChEMBL document CHEMBL1949573, “Isoform-selective thiazolo[5,4-b]pyridine S1P1 agonists possessing acyclic amino carboxylate head-groups” (Bioorg Med Chem Lett, 2012).
≈ marks a conversion by molar mass, not a printed value. One block for each molecule: values may come before it. Calls of active or inactive are those of the source. The calls are words filed in the database; no cut-off is given here.

Tests used:
Plasma [1] = assay: Plasma concentration in Lewis rat at 1 mg/kg, po; type: ADME, organism-based; parameters: dose 1 mg/kg, route oral; settings: in vivo
Rattus norvegicus [2] = assay: Immunomodulatory activity in Lewis rat assessed as peripheral lymphocyte reduction at 1 mg/kg, po after 24 hrs; type: functional; parameters: scale not given: the % may be the effect or the level left
[3] = target: T1, Sphingosine 1-phosphate receptor 1 (Homo sapiens, UniProt P21453); assay: Agonist activity at eGFP-tagged human S1P1 receptor expressed in U2OS cells assessed as receptor internalization after 1 hr by Hoechst dye-based microscopic analysis; type: functional, cell-based
[4] = target: T2, Sphingosine 1-phosphate receptor 3 (Homo sapiens, UniProt Q99500); assay: Agonist activity at human S1P3 receptor expressed in CHO cells coexpressing chimeric Gq/i5 G-protein assessed as Ca2+ release by FLIPR assay; type: functional, cell-based
[5] = target: T1, Sphingosine 1-phosphate receptor 1; assay: Agonist activity at eGFP-tagged human S1P1 receptor expressed in U2OS cells assessed as receptor internalization after 1 hr by Hoechst dye-based microscopic analysis relative to 1 uM 1-(4-(6-benzylbenzofuran-2-yl)-3-fluorobenzyl)azetidine-3-carboxylic acid; type: functional, cell-based
[6] = Solubility of the compound in simulated intestinal fluid; type: physicochemical; settings: simulated gi fluid
Plasma [7] = assay: Plasma concentration in Lewis rat at 0.1 mg/kg, po; type: ADME, organism-based; parameters: dose 0.1 mg/kg, route oral; settings: in vivo
[8] = Solubility of the compound in 0.01 N HCl; type: physicochemical; settings: buffer
rat MDR1 [9] = assay: Permeability from apical to basolateral side in pig LLC-PK1 cells expressing rat MDR1; type: ADME, cell-based, Sus scrofa; settings: read-out: permeability
[10] = Solubility of the compound in phosphate buffer saline; type: physicochemical
[11] = target: T2, Sphingosine 1-phosphate receptor 3; assay: Agonist activity at human S1P3 receptor expressed in CHO cells coexpressing chimeric Gq/i5 G-protein assessed as Ca2+ release by FLIPR assay relative to 0.2 uM S1P; type: functional, cell-based
Rattus norvegicus [12] = assay: Immunomodulatory activity in Lewis rat assessed as peripheral lymphocyte reduction at 0.1 mg/kg, po after 24 hrs relative to control; type: functional; parameters: scale not given: the % may be the effect or the level left
[13] = target: T3, Voltage-gated inwardly rectifying potassium channel KCNH2 (Homo sapiens, UniProt Q12809); assay: Inhibition of human Erg by electrophysiology assay
[14] = Fraction unbound in human plasma; type: ADME, cell-free
Cytochrome P450 2D6 [15] = target: T4, Cytochrome P450 2D6 (Homo sapiens, UniProt P10635); assay: Inhibition of CYP2D6; type: ADME
Rattus norvegicus [16] = assay: Immunomodulatory activity in Lewis rat assessed as peripheral lymphocyte reduction at 0.3 mg/kg, po after 24 hrs relative to control; type: functional; parameters: scale not given: the % may be the effect or the level left
Cytochrome P450 3A4 [17] = target: T5, Cytochrome P450 3A4 (Homo sapiens, UniProt P08684); assay: Induction of CYP3A4; type: ADME
rat MDR1 [18] = assay: Efflux ratio of permeability across pig LLC-PK1 cells expressing rat MDR1; type: ADME, cell-based, Sus scrofa
[19] = Mean residence time in Sprague-Dawley rat at 1 mg/kg, iv and 3 mg/kg, po; type: ADME, organism-based; settings: in vivo
[20] = Clearance in Sprague-Dawley rat at 1 mg/kg, iv and 3 mg/kg, po; type: ADME, organism-based; settings: in vivo
Cytochrome P450 2D6 [21] = target: T4, Cytochrome P450 2D6; assay: Induction of CYP2D6; type: ADME
Rattus norvegicus [22] = assay: Immunomodulatory activity in Lewis rat assessed as peripheral lymphocyte reduction at 1 mg/kg, po after 24 hrs relative to control; type: functional; parameters: scale not given: the % may be the effect or the level left
[23] = Oral bioavailability in Sprague-Dawley rat at 3 mg/kg; type: ADME, organism-based; settings: in vivo
[24] = Volume of distribution at steady state in Sprague-Dawley rat at 1 mg/kg, iv and 3 mg/kg, po; type: ADME, organism-based; settings: in vivo, read-out: Vdss
[25] = target: T3, Voltage-gated inwardly rectifying potassium channel KCNH2; assay: Binding affinity to human Erg
Cytochrome P450 3A4 [26] = target: T5, Cytochrome P450 3A4; assay: Inhibition of CYP3A4; type: ADME
[27] = Fraction unbound in rat plasma; type: ADME, cell-free

T1 sequence (P21453 whole entry): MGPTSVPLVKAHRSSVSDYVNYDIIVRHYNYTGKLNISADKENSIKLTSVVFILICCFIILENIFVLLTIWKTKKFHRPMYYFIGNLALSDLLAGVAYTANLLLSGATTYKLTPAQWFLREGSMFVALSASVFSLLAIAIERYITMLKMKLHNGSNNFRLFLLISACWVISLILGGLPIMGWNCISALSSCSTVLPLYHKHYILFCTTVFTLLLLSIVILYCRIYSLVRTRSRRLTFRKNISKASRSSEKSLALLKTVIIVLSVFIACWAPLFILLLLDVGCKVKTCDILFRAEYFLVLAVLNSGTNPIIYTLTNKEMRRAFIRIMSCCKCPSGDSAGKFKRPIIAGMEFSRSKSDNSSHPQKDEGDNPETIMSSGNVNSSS
T2 sequence (Q99500 whole entry): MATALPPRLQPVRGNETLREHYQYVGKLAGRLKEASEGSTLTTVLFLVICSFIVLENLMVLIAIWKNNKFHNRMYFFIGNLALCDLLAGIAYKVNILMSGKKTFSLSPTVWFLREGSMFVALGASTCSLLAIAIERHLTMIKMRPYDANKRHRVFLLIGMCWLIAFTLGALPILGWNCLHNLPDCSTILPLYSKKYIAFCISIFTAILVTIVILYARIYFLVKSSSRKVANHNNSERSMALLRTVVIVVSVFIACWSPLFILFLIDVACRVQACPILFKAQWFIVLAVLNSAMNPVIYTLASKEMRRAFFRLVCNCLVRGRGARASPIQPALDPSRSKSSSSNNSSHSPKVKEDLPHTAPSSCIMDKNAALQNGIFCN
T4 sequence (P10635 whole entry): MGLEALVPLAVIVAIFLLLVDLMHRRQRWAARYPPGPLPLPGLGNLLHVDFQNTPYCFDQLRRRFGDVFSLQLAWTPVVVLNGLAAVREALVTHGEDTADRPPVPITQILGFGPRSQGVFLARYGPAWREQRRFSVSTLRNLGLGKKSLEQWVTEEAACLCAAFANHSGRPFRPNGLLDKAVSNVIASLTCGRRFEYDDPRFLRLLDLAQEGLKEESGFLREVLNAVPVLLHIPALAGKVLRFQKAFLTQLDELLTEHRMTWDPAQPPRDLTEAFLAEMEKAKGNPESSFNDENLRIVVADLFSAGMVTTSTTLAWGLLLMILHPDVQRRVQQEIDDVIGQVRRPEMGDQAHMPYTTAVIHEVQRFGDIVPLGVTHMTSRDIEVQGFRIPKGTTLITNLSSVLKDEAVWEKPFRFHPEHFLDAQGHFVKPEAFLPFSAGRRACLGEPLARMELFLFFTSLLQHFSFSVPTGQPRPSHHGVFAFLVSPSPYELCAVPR
T5 sequence (P08684 whole entry): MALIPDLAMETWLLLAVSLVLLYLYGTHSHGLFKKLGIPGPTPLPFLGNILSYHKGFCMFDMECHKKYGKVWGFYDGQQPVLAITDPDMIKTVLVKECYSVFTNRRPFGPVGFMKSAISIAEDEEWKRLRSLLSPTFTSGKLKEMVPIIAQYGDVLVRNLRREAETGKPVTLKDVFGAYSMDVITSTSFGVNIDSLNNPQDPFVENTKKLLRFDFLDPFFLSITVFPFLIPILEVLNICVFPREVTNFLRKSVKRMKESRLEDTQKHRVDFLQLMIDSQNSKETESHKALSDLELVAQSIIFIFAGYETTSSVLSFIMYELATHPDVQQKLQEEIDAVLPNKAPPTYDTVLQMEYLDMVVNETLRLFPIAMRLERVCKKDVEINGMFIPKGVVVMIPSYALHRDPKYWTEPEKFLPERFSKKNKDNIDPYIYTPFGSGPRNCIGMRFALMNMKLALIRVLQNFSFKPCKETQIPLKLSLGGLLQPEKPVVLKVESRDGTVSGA
T3 sequence (Q12809 whole entry): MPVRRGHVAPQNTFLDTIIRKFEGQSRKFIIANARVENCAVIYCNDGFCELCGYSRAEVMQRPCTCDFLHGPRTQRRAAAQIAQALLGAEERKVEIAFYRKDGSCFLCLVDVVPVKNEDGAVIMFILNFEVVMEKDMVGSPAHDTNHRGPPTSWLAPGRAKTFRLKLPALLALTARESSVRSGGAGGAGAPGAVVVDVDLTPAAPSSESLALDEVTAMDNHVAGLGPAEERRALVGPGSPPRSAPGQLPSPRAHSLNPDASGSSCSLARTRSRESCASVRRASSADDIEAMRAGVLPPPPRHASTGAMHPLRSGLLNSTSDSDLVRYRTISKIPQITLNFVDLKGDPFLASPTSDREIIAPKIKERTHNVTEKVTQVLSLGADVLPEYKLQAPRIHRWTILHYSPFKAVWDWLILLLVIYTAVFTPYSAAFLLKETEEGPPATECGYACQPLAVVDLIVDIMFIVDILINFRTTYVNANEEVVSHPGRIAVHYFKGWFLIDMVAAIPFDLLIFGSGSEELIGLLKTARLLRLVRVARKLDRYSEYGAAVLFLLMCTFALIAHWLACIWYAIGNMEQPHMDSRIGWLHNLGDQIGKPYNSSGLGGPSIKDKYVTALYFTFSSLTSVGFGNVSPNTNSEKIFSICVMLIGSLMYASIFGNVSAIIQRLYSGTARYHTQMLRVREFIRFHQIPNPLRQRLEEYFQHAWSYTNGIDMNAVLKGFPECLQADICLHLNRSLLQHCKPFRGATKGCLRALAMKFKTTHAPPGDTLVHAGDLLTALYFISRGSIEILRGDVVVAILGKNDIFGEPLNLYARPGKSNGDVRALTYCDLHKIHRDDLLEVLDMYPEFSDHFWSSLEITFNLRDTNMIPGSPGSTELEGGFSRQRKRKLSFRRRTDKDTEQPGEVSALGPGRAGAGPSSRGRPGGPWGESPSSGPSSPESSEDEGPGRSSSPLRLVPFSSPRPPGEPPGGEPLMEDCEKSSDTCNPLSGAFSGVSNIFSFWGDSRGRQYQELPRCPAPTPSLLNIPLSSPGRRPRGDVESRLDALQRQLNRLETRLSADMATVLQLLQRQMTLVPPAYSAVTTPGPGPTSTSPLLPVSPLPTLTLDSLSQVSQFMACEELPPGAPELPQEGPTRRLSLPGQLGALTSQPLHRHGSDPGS

SMILES: N[C@@H](CCc1ccc(-c2nc3ccc(C4(c5ccccc5)CC4)nc3s2)c(F)c1)C(=O)O
Cp (Plasma [1]): 2 ng/mL
Activity (Rattus norvegicus [2]): 22%
EC50 [3]: 0.5 nM
EC50 [4]: > 2500 nM
Efficacy [5]: 115%

SMILES: O=C(O)c1ccc(-c2nc3ccc(C4(c5ccccc5)CC4)nc3s2)c(F)c1
EC50 [3]: 2820 nM
EC50 [4]: > 25000 nM
Efficacy [5]: 105%

SMILES: O=C(O)C1CN(Cc2ccc(-c3nc4ccc(C5(c6ccccc6)CC5)nc4s3)c(F)c2)C1
solubility [6]: 65 ng/mL (≈ 0.141 µM)
Cp (Plasma [1]): 116 ng/mL
Activity (Rattus norvegicus [2]): 71%
Cp (Plasma [7]): 10 ng/mL
solubility [8]: 3 ng/mL (≈ 0.00653 µM)
Papp A→B (rat MDR1 [9]): 14.6 ×10⁻⁶ cm/s
solubility [10]: 7 ng/mL (≈ 0.0152 µM)
Efficacy [11]: 26%
Activity (Rattus norvegicus [12]): 65%

SMILES: NCCc1ccc(-c2nc3ccc(C4(c5ccccc5)CC4)nc3s2)c(F)c1
EC50 [3]: 478 nM
EC50 [4]: > 25000 nM
Efficacy [5]: 155%

SMILES: O=C(O)CCCNc1ccc(-c2nc3ccc(C4(c5ccccc5)CC4)nc3s2)c(F)c1
EC50 [3]: 36 nM
Efficacy [11]: 18%
EC50 [4]: 7120 nM
Efficacy [5]: 113%

SMILES: N[C@H](CC(=O)O)C(=O)Nc1ccc(-c2nc3ccc(C4(c5ccccc5)CC4)nc3s2)c(F)c1
Cp (Plasma [1]): 2 ng/mL
Activity (Rattus norvegicus [2]): 0%
Efficacy [11]: 31%
EC50 [4]: 834 nM
Efficacy [5]: 100%

SMILES: O=C(O)CCc1ccc(-c2nc3ccc(C4(c5ccccc5)CC4)nc3s2)c(F)c1
EC50 [4]: > 25000 nM
Efficacy [5]: 81%

SMILES: O=C(O)CNCc1ccc(-c2nc3ccc(C4(c5ccccc5)CC4)nc3s2)c(F)c1
Cp (Plasma [1]): 7 ng/mL
Activity (Rattus norvegicus [2]): 37%
EC50 [3]: 3 nM
Efficacy [11]: 17%
EC50 [4]: 1560 nM
Efficacy [5]: 103%

SMILES: O=C(O)CCNc1ccc(-c2nc3ccc(C4(c5ccccc5)CC4)nc3s2)c(F)c1
EC50 [3]: 42 nM
EC50 [4]: > 2500 nM
Efficacy [5]: 94%

SMILES: NCCCc1ccc(-c2nc3ccc(C4(c5ccccc5)CC4)nc3s2)c(F)c1
EC50 [3]: 8 nM
EC50 [4]: > 2500 nM
Efficacy [5]: 121%

SMILES: O=C(O)CNCCc1ccc(-c2nc3ccc(C4(c5ccccc5)CC4)nc3s2)c(F)c1
Cp (Plasma [1]): 1 ng/mL
Activity (Rattus norvegicus [2]): 15%
EC50 [3]: 2 nM
Efficacy [11]: 11%
EC50 [4]: 1440 nM
Efficacy [5]: 102%

SMILES: N[C@@H](CC(=O)O)C(=O)Nc1ccc(-c2nc3ccc(C4(c5ccccc5)CC4)nc3s2)c(F)c1
Cp (Plasma [1]): 1 ng/mL
Activity (Rattus norvegicus [2]): 0%
EC50 [3]: 0.5 nM
Efficacy [11]: 35%
EC50 [4]: 1130 nM
Efficacy [5]: 134%

SMILES: O=C(O)CCCNCc1ccc(-c2nc3ccc(C4(c5ccccc5)CC4)nc3s2)c(F)c1
EC50 [3]: 179 nM
EC50 [4]: > 2500 nM
Efficacy [5]: 128%

SMILES: NCc1ccc(-c2nc3ccc(C4(c5ccccc5)CC4)nc3s2)c(F)c1
EC50 [3]: 15 nM
EC50 [4]: > 2500 nM
Efficacy [5]: 113%

SMILES: O=C(O)CCNCc1ccc(-c2nc3ccc(C4(c5ccccc5)CC4)nc3s2)c(F)c1
Cp (Plasma [1]): 12 ng/mL
Activity (Rattus norvegicus [2]): 27%
EC50 [3]: 3 nM
EC50 [4]: > 25000 nM
Efficacy [5]: 96%

SMILES: Nc1ccc(-c2nc3ccc(C4(c5ccccc5)CC4)nc3s2)c(F)c1
EC50 [3]: 123 nM
EC50 [4]: > 25000 nM
Efficacy [5]: 92%

The next lines start with results.

Cp (Plasma [1]): 4 ng/mL
EC50 [3]: 2 nM
EC50 [4]: > 2500 nM
Efficacy [5]: 110%
SMILES: N[C@H](CC(=O)Nc1ccc(-c2nc3ccc(C4(c5ccccc5)CC4)nc3s2)c(F)c1)C(=O)O
Activity (Rattus norvegicus [2]): 0%

EC50 [3]: 45 nM
EC50 [4]: > 25000 nM
Efficacy [5]: 98%
SMILES: Fc1ccccc1-c1nc2ccc(C3(c4ccccc4)CC3)nc2s1

Cp (Plasma [1]): 6 ng/mL
EC50 [3]: 3 nM
EC50 [4]: > 2500 nM
Efficacy [5]: 93%
SMILES: C[C@](N)(CCc1ccc(-c2nc3ccc(C4(c5ccccc5)CC4)nc3s2)c(F)c1)C(=O)O
Activity (Rattus norvegicus [2]): 15%

EC50 [3]: 2410 nM
EC50 [4]: > 25000 nM
Efficacy [5]: 103%
SMILES: O=C(O)CCCCc1ccc(-c2nc3ccc(C4(c5ccccc5)CC4)nc3s2)c(F)c1

Cp (Plasma [1]): 5 ng/mL
EC50 [3]: 0.3 nM
EC50 [4]: > 2500 nM
Efficacy [5]: 128%
SMILES: N[C@H](CCc1ccc(-c2nc3ccc(C4(c5ccccc5)CC4)nc3s2)c(F)c1)C(=O)O
Activity (Rattus norvegicus [2]): 55%

EC50 [3]: 19 nM
Efficacy [11]: 39%
EC50 [4]: 5560 nM
Efficacy [5]: 80%
SMILES: O=C(O)CCC(=O)Nc1ccc(-c2nc3ccc(C4(c5ccccc5)CC4)nc3s2)c(F)c1

fraction unbound [14]: 0.037
inhibition (INH) (Cytochrome P450 2D6 [15]): Not Active
solubility [6]: 108 ng/mL (≈ 0.234 µM)
Cp (Plasma [1]): 10 ng/mL
EC50 [3]: 0.2 nM
Activity (Cytochrome P450 3A4 [17]): Not Active
efflux ratio (rat MDR1 [18]): 1.8
solubility [8]: 6 ng/mL (≈ 0.013 µM)
Papp A→B (rat MDR1 [9]): 4 ×10⁻⁶ cm/s
MRT [19]: 11.4 h
clearance [20]: 6 mL/min/kg
Activity (Cytochrome P450 2D6 [21]): Not Active
bioavailability [23]: 16%
solubility [10]: < 1 ng/mL
Vd [24]: 4.1 L/kg
EC50 [4]: > 2500 nM
Efficacy [5]: 114%
inhibition (INH) (Cytochrome P450 3A4 [26]): Not Active
fraction unbound [27]: 0.039
SMILES: C[C@@](N)(CCc1ccc(-c2nc3ccc(C4(c5ccccc5)CC4)nc3s2)c(F)c1)C(=O)O
INH [13]: > 10 µM
Activity (Rattus norvegicus [16]): 29%
Activity (Rattus norvegicus [2]): 71%
Activity (Rattus norvegicus [22]): 56%
Activity (Rattus norvegicus [12]): inactive
Activity [25]: > 30 µM

EC50 [3]: 196 nM
EC50 [4]: > 25000 nM
Efficacy [5]: 153%
SMILES: CN(CCC(=O)O)Cc1ccc(-c2nc3ccc(C4(c5ccccc5)CC4)nc3s2)c(F)c1

Cp (Plasma [1]): 8 ng/mL
EC50 [3]: 2 nM
EC50 [4]: > 2500 nM
Efficacy [5]: 102%
SMILES: N[C@@H](CC(=O)Nc1ccc(-c2nc3ccc(C4(c5ccccc5)CC4)nc3s2)c(F)c1)C(=O)O
Activity (Rattus norvegicus [2]): 4%

EC50 [3]: 62 nM
EC50 [4]: > 25000 nM
Efficacy [5]: 100%
SMILES: O=C(O)CCCc1ccc(-c2nc3ccc(C4(c5ccccc5)CC4)nc3s2)c(F)c1
